Source: patent US4570005A, “Process for the preparation of 2-arylpropyl ether or thioether derivatives” (priority 1980, dated 1986)

Assays:
plants of Solanacede = settings: Fenvalerate; general statement; cited from earlier work
two-spotted spider mite = test: Test 6: Effect on Two-Spotted Spider mite Adults; format: in vivo; settings: 100 ppm, adults, 24 hours, 25° C
male mice = test: Test 9: Toxicity Test (acute oral toxicity, mice); settings: oral; corn oil; male mice; 7 days
Method: (§1) A predetermined amount of a solution or suspension of a test compound in corn oil was orally administered to male mice having a body weight of 19 to 23 g (0.2 ml per 10 g of the body weight). After 7 days, the number of killed mice was counted and the influences on the mice were examined.

tobacco cutworm [1] = test: Test 1: Effect on Tobacco Cutworm (leaf immersion), mortality after 24 hours; format: in vivo; settings: second-instar larvae, 25° C
Procedure, shortened: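 Second-instar tobacco cutworm larvae were kept at 25 °C on air-dried sweet-potato leaves that had been immersed for 10 s in test dilutions of 100 or 20 ppm from an emulsifiable concentrate. Mortality was scored at 24 h as the mean of three cups.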

tobacco cutworm [2] = test: Test 2: Tobacco Cutworm Larva Dipping Test, mortality after 24 hours; format: in vivo; settings: 24 hours
Procedure, shortened: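 Second- and fifth-instar larvae dipped 5 s in a water dilution of an emulsifiable concentrate at 100 or 20 ppm, blotted, then held on artificial diet at 25° C. Dead and living larvae counted after 24 hours; mortality averaged over three cups.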

[3] = test system: resistant green rice leafhopper (collected at Nakagawara); test: Test 3: Effect on Resistant Green Rice Leafhopper (collected at Nakagawara); format: in vivo, Nephotettix cincticeps Uhler (Green rice leafhopper); settings: Nephotettix cincticeps, 24 h, read-out: Mortality (%), Green Rice Leafhopper Collected at Nakagawara
Procedure, shortened: (§2)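 Ten adult females per pot, either resistant (Nakagawara) or sensitive (Chigasaki), were caged on air-dried rice seedlings (2–3 leaves) sprayed at 3 ml/pot with 100 or 20 ppm of an emulsifiable concentrate dilution. Dead and living insects were counted after 24 hours; mortality is the mean of three pots.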

[4] = test system: sensitive green rice leafhopper (collected at Chigasaki); test: whole plant or invertebrate; format: in vivo; settings: Nephotettix cincticeps, sensitive female adults, 24 hours, read-out: Mortality (%), Green Rice Leafhopper Collected at Chigasaki
Procedure, shortened: as §2

diamond back moth = test: Test 4: Effect on Diamond Back Moth; format: in vivo; settings: Plutella, third-instar larvae, 24 hours, read-out: Mortality (%)
Procedure, shortened: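 Compound formulated as an emulsifiable concentrate, diluted in water to 100 or 20 ppm and sprayed at 3 ml per cup onto cabbage leaves holding 10 third-instar larvae. Mortality counted after 24 hours; mean of three cups.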

green peach aphid = test: Test 5: Effect on Green Peach Aphid; format: in vivo; settings: Myzus persicae; 100 ppm; mortality class; 24 hours; read-out: Insecticidal Activity
Procedure, shortened: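 Eggplant seedlings with 3–4 leaves were infested with aphids and sprayed with a 100 ppm aqueous dilution of an emulsifiable concentrate, then kept in a glasshouse. Living insects were counted after 24 h. Mortality is averaged over three pots and graded A (>95%), B (80–95%), C (50–80%) or D (<50%).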

German cockroach = test: Test 7: Effect on German Cockroach; format: in vivo; settings: Blattella germanica, male adults, agonized and killed after 24 hours, read-out: Mortality (%)
Procedure, shortened: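 Petri dish floors were treated with 50 or 10 mg/m2 of compound (diluted emulsifiable concentrate) and air-dried. Ten male adult German cockroaches per dish were held at 25° C. Agonized and dead insects were counted after 24 hours, averaging two dishes.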

Test 8: Fish Toxicity = format: in vivo; settings: carp, water; concentration at which 1/2 of the test fishes were killed within 48 hours; read-out: Fish Toxicity, TLm48
Method: A water tank having a width of 60 cm, a length of 30 cm and a height of 40 cm was filled with water, and 10 yearling carps having a body length of about 5 cm were set free in the tank and adapted to the environment in the tank. A test compound was applied so that the concentration in water was 10, 1 or 0.1 ppm. After 48 hours, the numbers of killed and living carps were counted and the influences on the fishes were examined.

[5] = Test 9: Toxicity Test (acute oral toxicity, mice); settings: mouse, in vivo, po
Method: as §1

[6] = fifth-instar larvae, read-out: Motality (%), Fifth-Instar Larvae
[7] = second-instar larvae, read-out: Motality (%), Second-Instar Larvae

With `CC(C)C(C(=O)OC(C#N)c1cccc(Oc2ccccc2)c1)c1ccc(Cl)cc1` (stereo not drawn) [Fenvalerate] as the molecule, how does the “phyto-toxicity to plants of Solanacede” value (plants of Solanacede) read?
The value was “observed”.

What does the source list for “Pyrethrin [Comparative Compound (c), reference compound]”?
Mortality (%) (two-spotted spider mite): 0%; Acute Toxicity at Oral Administration, LD-50 (male mice): 340 mg/kg

For `CC(C)(COCc1cccc(Oc2ccccc2)c1)c1ccc2c(c1)OCO2` [Compound 7, 3-Phenoxybenzyl 2-(3,4-methylenedioxyphenyl)-2-methylpropyl ether], which mortality at 20 ppm (tobacco cutworm [1]; 20 ppm) is on record?
Its mortality at 20 ppm is 80%.

What about the mortality at 100 ppm (tobacco cutworm [1]; 100 ppm) of the same molecule?
The mortality at 100 ppm was 100%.

What about the mortality at 20 ppm (tobacco cutworm [2]; [6]) of the same molecule?
Its mortality at 20 ppm is 50%.

What about the mortality at 20 ppm (tobacco cutworm [2]; [7]) of the same molecule?
Its mortality at 20 ppm is 60%.

What about the mortality at 100 ppm (tobacco cutworm [2]; [6]) of the same molecule?
Its mortality at 100 ppm is 100%.

What about the mortality at 100 ppm (tobacco cutworm [2]; [7]) of the same molecule?
The mortality at 100 ppm was 100%.

What about the mortality at 20 ppm [3] of the same molecule?
The mortality at 20 ppm was 100%.

And the mortality at 100 ppm [3]?
The mortality at 100 ppm was 100%.

And the mortality at 20 ppm ([4]; 20 ppm)?
The mortality at 20 ppm was 90%.

What about the mortality at 100 ppm ([4]; 100 ppm) of the same molecule?
Its mortality at 100 ppm is 100%.

What about the mortality at 20 ppm (diamond back moth; 20 ppm) of the same molecule?
The mortality at 20 ppm was 80%.

And the mortality at 100 ppm (diamond back moth; 100 ppm)?
The mortality at 100 ppm was 100%.

And the mortality at 100 ppm (green peach aphid)?
The mortality at 100 ppm was > 95%.

And the mortality at 100 ppm (two-spotted spider mite; Tetranychus urticae, read-out: Mortality (%))?
The mortality at 100 ppm was 100%.

And the mortality at 10 mg/m2 (German cockroach; 10 mg/m^2)?
The mortality at 10 mg/m2 was 100%.

And the mortality at 50 mg/m2 (German cockroach; 50 mg/m^2)?
The mortality at 50 mg/m2 was 100%.

And the LC50 at 48 h (Test 8: Fish Toxicity)?
The LC50 at 48 h was > 10 µg/mL.

What about the LD50 at 168 h [5] of the same molecule?
The LD50 at 168 h was > 500 mg/kg.
